In PMC12808100, “The non-catalytic DNA polymerase ε subunit is an NPF motif recognition protein” (Nature Communications, 2025):

Key:
[1] = target: His6-avi-MBP-tagged POLE2; test: Single-point nHU-MS with recombinant His6-avi-MBP-POLE2 bait, Jurkat extract; assay type: binding, human; settings: for BI / log2FC / pKapp: bait av-His6-MBP-tagged full-length POLE2
Excerpt: So far, our study only focused on a few hand-picked NPF motifs and studied them as short synthetic peptides. However, many other proteins may be present in the proteome that could bind to POLE2 and their putative NPF motifs are embedded in their natural structures that can greatly affect their binding properties. To investigate interactions between POLE2 and intact, full length proteins proteome-wide, we used nHU-MS experiments with recombinant His6-avi-MBP-tagged POLE2 as bait and purified His6-avi-MBP as a control. Even though we are aware that this recombinant POLE2 may bind to NPF motifs with a somewhat altered affinity, we assumed that this would affect all NPF motif-mediated interactions equally, allowing an unbiased affinity ranking of all identified partners. Single point nHU measurements were performed at 26 μM POLE2 concentration and the recovered supernatant was measured by label free proteomic MS measurements (Fig. 3A, Supplementary Figs. 8A, 9, Supplementary Data 1).
Single-point nHU experiments with protein baits were carried out nearly identically with two key modifications. First, the resin saturation step was carried out by mixing 50 μl streptavidin resin with 0.5−1 ml 50 μM biotinylated protein solution and the mixture was incubated for 1.5 h at 4 °C with constant agitation. Second, instead of using estimated bait concentrations, we measured it experimentally. An extra aliquot of resin stock was prepared alongside the nHU samples that were identically processed that were used to eluate the immobilized proteins under harsh conditions, in order to experimentally quantify the Cbait by using densitometry of Coomassie stained SDS-PAGE that included a protein calibration series. For this, 50 μl bait-saturated resin aliquots were mixed with 200 μl 4x Laemmli Sample Buffer (120 mM Tris-HCl pH 7, 8% SDS, 100 mM DTT, 32% glycerol, 0.004% bromphenol blue, 1% β-mercaptoethanol), instead of cell extract. After 15 min incubation at 95 °C, these samples were analyzed by SDS-PAGE using protein calibration standard, made from recombinant MBP. Densitometry was carried out after Coomassie staining on raw Tif images by using Fiji ImageJ 1.53c and experimental bait concentration were determined by adjusting for molecular weight differences between MBP and MBP-POLE2 constructs.
Samples were digested overnight at 37 °C.

POLE = test: Titration nHU, Western blot, endogenous POLE in Jurkat extract; assay type: binding, human; settings: titration nHU with peptide bait, Western blot
Excerpt: To identify the partners of NPF motifs, we used the native holdup (nHU) assay that was recently developed by our team (Fig. 1B). The holdup approach has been extensively used to determine equilibrium dissociation constants of transient interactions mediated by PDZ and SH3 domains, 14-3-3, and human papilloma virus E6 proteins, and even nucleic acid-protein interactions[7],[30]–[35]. In the nHU experiments, a purified bait molecule, or a control compound, is immobilized on a resin at high concentration (typically 10 μM, or higher) and these resin stocks are subsequently mixed with dilute cell extracts. After a relatively long incubation, i.e., 2 h at 4 °C, the liquid phase is separated by centrifugation. This liquid phase contains the unbound prey molecules at near binding equilibrium that can be quantified using selective and quantitative analytical approaches, such as mass spectrometry. Therefore, proteins that interact with the bait molecule will appear to be depleted in the solvent phase and by measuring its relative concentration compared to the control nHU experiment, the degree of binding (θ) can be determined that can be converted to apparent steady-state dissociation constants, according to:1 θ=1−Ifree/Itot=Cbait/Cbait+Kapp where Itot and Ifree are the measured total and bait-depleted equilibrium mass spectrometry total ion intensities of prey proteins, Cbait is the bait molecule concentration and Kapp is the apparent dissociation constant.
Jurkat E6.1 cells (ECACC #88042803, RRID: CVCL_0367) were grown in RPMI (Gibco) medium completed with 10% FBS (Gibco BRL) and 40 μg/ml gentamicin (Gibco/Life Technology). To prepare total cell extracts, Jurkat cells were seeded onto T-175 flasks and grew until 3 × 10^6 cells/ml confluency. Cells were collected by 1000 g x 5 min centrifugation, washed with PBS and then lysed in ice-cold lysis buffer (Hepes-KOH pH 7.5 50 mM, NaCl 150 mM, Triton X-100 1%, cOmplete EDTA-free protease inhibitor cocktail 5x, TCEP 5 mM, glycerol 10%).
Cell suspensions were sonicated 4×20 sec with 1 sec long pulse on ice, then incubated rotating at 4 °C for 30 min. The lysates were centrifuged at 12,000 rpm 4 °C for 20 min and supernatant was kept. Total protein concentration was measured by standard Bradford method (Bio-Rad Protein Assay Dye Reagent #5000006) using a BSA calibration curve (MP Biomedicals #160069, diluted in lysis buffer) on a Bio-Rad SmartSpec 3000 spectrophotometer instrument.
Titration holdup experiments were carried out as described above using 25 μl saturated resins prepared. Briefly, we mixed control, or bait-saturated resins at various proportions by keeping the total resin amount and resin-analyte ratio constant during the experiment (for 25 μl we used 100 μl cell extract as analyte). In titration experiments with protein baits, bait concentration was determined as described above for the saturated resin stocks. Experiments were carried out at 4 °C for 2 h and recovered supernatants were subjected to western blot or dot blot analysis.
For Western blot, samples were mixed with 4x Laemmli Sample Buffer in 3:1 ratio. Equal amounts of samples were loaded on 6-10% acrylamide-gels (generally 16 μg). Transfer was done into PVDF membranes using a Trans-Blot Turbo Transfer System and Trans-Blot Turbo RTA Transfer Kit (BioRad, #1704275). For Dot blot, nHU samples were directly loaded on Nitrocellulose membranes using 48 Sample vacuum manifold (Cleaver Scientific) following the manufacturer’s recommendations.
After 1 h of blocking in 5% milk, membranes were incubated overnight at 4 °C with primary antibodies in 5% milk-TBS-Tween.

[2] = significant apparent affinity of endogenous prey protein for POLE2 bait, single-point nHU-MS, Figure S11
[3] = non-zero for significant partners, MS6_Varjosalo

Substance	pKapp_sign [1, 2]	further results
AGL	4.38	–
ARLRH [AKNA]	4.257	–
ASVD [CPSF4]	4.068	–
CRIPT	4.909	–
DEGFK [ACACA, endogenous full length prey protein]	3.986	BI ([1]; MS6_Varjosalo): 0.2013; log2FC ([1]; MS6_Varjosalo): -0.3242; pKapp ([1]; MS6_Varjosalo): 3.986; pKapp_sign [1, 3]: 3.986
KDDY [DNAJC10]	4.21	–
KPKKPLTSSS [MAPRE1]	4.964	–
KPTSTYSLSS [VIPAS39]	4.13	–
LSVD [LEF1]	4.471	–
MIOS	4.5333	–
NPFA [WDR59, endogenous full length prey protein]	4.457	–
NPFI [DNAJA3, endogenous full length prey protein]	4.13	–
NPFK [CCDC134, endogenous full length prey protein]	4.219	–
NPFQ [MAPK1IP1L, endogenous full length prey protein]	4.047	–
NPFQ [SSBP2, endogenous full length prey protein]	4.583	–
NPFT [NOSIP, endogenous full length prey protein]	4.058	–
NSVD [PLEKHA5, endogenous full length prey protein]	4.548	–
PAAST [NUP58]	4.1	–
PPSSKVSSHS [CNTRL]	4.363	–
PSASG [NUP214, endogenous full length prey protein]	3.986	BI ([1]; MS6_Varjosalo): 0.2012; log2FC ([1]; MS6_Varjosalo): -0.3242; pKapp ([1]; MS6_Varjosalo): 3.986; pKapp_sign [1, 3]: 3.986
PSASM [RFWD3]	4.618	–
PSASR [NUP188]	4.034	–
PSASS [ERCC6L, endogenous full length prey protein]	4.421	–
PSASS [TTF2, endogenous full length prey protein]	4.771	–
PSAST [EPN2, endogenous full length prey protein]	4.531	–

Substance	pKapp_sign [1, 2]	further results
PSPST [EXO1]	4.499	–
PSSST [GIGYF2]	4.1436	–
PSTST [UBR5, endogenous full length prey protein]	4.008	BI ([1]; MS6_Varjosalo): 0.2095; log2FC ([1]; MS6_Varjosalo): -0.3392; pKapp ([1]; MS6_Varjosalo): 4.008; pKapp_sign [1, 3]: 4.008
PSVST [ZMYM1]	4.45	–
PVGGND [USP9X, endogenous full length prey protein]	4.835	–
PVLGNI [SSBP3]	4.288	–
PYCR1: endogenous full length prey protein	4.011	log2FC ([1]; MS6_Varjosalo): -0.3412
QDLGNI [CTSA]	4.815	–
QPLRH [OIP5]	4.225	–
RARA [INKA1]	5.687	–
RHRA [FIP1L1]	4.277	–
RRIVSDGEDEDDSFKDTSSINPFNTSLFQFSSVKQFDAS [ERCC6L 1024-1062, biotinylated NPF motif peptide of ERCC6L]	–	binding to endogenous POLE (POLE; listed as NPF motif of ERCC6L): No apparent binding
RSRSVS [ZNRF1]	4.487	–
RSVD [PLEKHA7]	4.312	–
SLGEI [GYG1]	4.703	–
SLRED [INPP5K]	4.539	–
SRPMVIQESKSLLRNPFEAIRPGS [CLSPN 1223-1246, biotinylated NPF motif peptide of Claspin]	–	binding to endogenous POLE (POLE; listed as CLSPN): unable to bind to endogenous POLE; binding to endogenous POLE (POLE; listed as Claspin): could not interact with POLE
SSNSQ [PNPT1]	4.014	–
SSQSY [EIF4E2]	4.429	–
TNSTSD [PIKFYVE]	4.132	–
TRIM25	4.096	–
TRIM27	4.707	–
TSPTSD [NUMB, endogenous full length prey protein]	4.316	–
TTAATSV [SEC23IP]	4.243	–
